Measurements from ChEMBL document CHEMBL3102831 (Bioorg Med Chem Lett, 2014).

Legend:
HCT-116 [1] = assay: Cytotoxicity against human HCT116 cells after 48 hrs by MTT assay; format: functional, cell-based; details: HCT-116, 48 h
[2] = Cytotoxicity against human SPCA2 cells after 48 hrs by MTT assay; format: functional, cell-based; details: SPCA2, 48 h
CNE = assay: Cytotoxicity against human CNE cells after 48 hrs by MTT assay; format: functional, cell-based
HepG2 = assay: Cytotoxicity against human HepG2 cells after 48 hrs by MTT assay; format: functional, cell-based; details: HepG2, 48 h
HUVEC = assay: Cytotoxicity against human HUVEC after 48 hrs by MTT assay; format: cell-based
HeLa = assay: Cytotoxicity against human HeLa cells after 48 hrs by MTT assay; format: functional, cell-based
[3] = Cytotoxicity against human COLO320DM cells; format: functional, cell-based; details: COLO 320DM
DNA = assay: Binding affinity to F32T oligonucleotide DNA assessed as change in melting temperature by FRET assay
HCT-116 [4] = assay: Cytotoxicity against human HCT116 cells; format: functional, cell-based

| Structure (SMILES) | IC50 (HCT-116 [1]) | IC50 [2] | IC50 (CNE) | IC50 (HepG2) | IC50 (HUVEC) | IC50 (HeLa) | IC50 [3] | ΔTm (DNA) | IC50 (HCT-116 [4]) |
| --- | --- | --- | --- | --- | --- | --- | --- | --- | --- |
| CCOP(=O)(OCC)C(NC(=O)c1cc(O)c2c(c1)C(=O)c1cccc(O)c1C2=O)c1cccc(C)c1 (stereo not drawn) | 45.4 µM | 67.7 µM | 74.2 µM | 62.2 µM | > 100 µM | 73.3 µM |  |  |  |
| CCOP(=O)(OCC)C(NC(=O)c1cc(O)c2c(c1)C(=O)c1cccc(O)c1C2=O)c1ccccc1OC (stereo not drawn) | 8.37 µM | 15 µM | 28.6 µM | 30 µM | > 100 µM | 25.6 µM |  |  |  |
| CCOP(=O)(OCC)C(NC(=O)c1cc(O)c2c(c1)C(=O)c1cccc(O)c1C2=O)c1ccc2ccccc2c1 (stereo not drawn) | > 100 µM | > 100 µM | > 100 µM | > 100 µM | > 100 µM | > 100 µM |  |  |  |
| CCOP(=O)(OCC)C(NC(=O)c1cc(O)c2c(c1)C(=O)c1cccc(O)c1C2=O)c1cccc(Br)c1 (stereo not drawn) | 40.2 µM | 75.4 µM | 40.1 µM | 62.4 µM | > 100 µM | 78.2 µM |  |  |  |
| CCOP(=O)(OCC)C(NC(=O)c1cc(O)c2c(c1)C(=O)c1cccc(O)c1C2=O)c1ccccc1F (stereo not drawn) | 36.6 µM | 79.9 µM | 67.6 µM | 71.2 µM | > 100 µM | 94.2 µM |  |  |  |
| CCOP(=O)(OCC)C(NC(=O)c1cc(O)c2c(c1)C(=O)c1cccc(O)c1C2=O)c1c2ccccc2cc2ccccc12 (stereo not drawn) | > 100 µM | > 100 µM | > 100 µM | > 100 µM | > 100 µM | > 100 µM |  |  |  |
| CCOP(=O)(OCC)C(NC(=O)c1cc(O)c2c(c1)C(=O)c1cccc(O)c1C2=O)c1ccccc1 (stereo not drawn) | 17.8 µM | 27.4 µM | 34.3 µM | 39.2 µM | > 100 µM | 38.2 µM |  |  |  |
| CCOP(=O)(OCC)C(NC(=O)c1cc(O)c2c(c1)C(=O)c1cccc(O)c1C2=O)c1ccc(Cl)cc1 (stereo not drawn) | 61.2 µM | 89.5 µM | 55.8 µM | 87.3 µM | > 100 µM | 87.5 µM |  |  |  |
| O=C(O)c1cc(O)c2c(c1)C(=O)c1cccc(O)c1C2=O [RHEIN] |  |  |  |  | 89.7 µM |  | 62.5 µM | 2 °C | 135 µM |
| CCOP(=O)(OCC)C(NC(=O)c1cc(O)c2c(c1)C(=O)c1cccc(O)c1C2=O)c1ccccc1Cl (stereo not drawn) | 48.2 µM | 28.3 µM | 68 µM | 39.2 µM | > 100 µM | 35.2 µM |  |  |  |
